Test results taken from US8871681B2, “Herbicidal compositions comprising 4-amino-3-chloro-5-fluoro-6-(4-chloro-2-fluoro-3-methoxyphenyl) pyridine-2-carboxylic acid or a derivative thereof and certain sulfonylureas” (Dow AgroSciences LLC, priority 2012, dated 2014).

What was measured:
[1] = test system: SCPMA (Bolboschoenus maritimus or Schoenoplectus maritimus, sea clubrush); assay: In-water applied weed control, transplanted paddy rice, greenhouse (Example II); type: in vivo, Bolboschoenus maritimus (L.) Palla
Description: (§1) Weed seeds or nutlets of the desired test plant species were planted in puddled soil (mud) prepared by mixing a shredded, non-sterilized mineral soil (50.5 percent silt, 25.5 percent clay, and 24 percent sand, with a pH of about 7.6 and an organic matter content of about 2.9 percent) and water at a 1:1 volumetric ratio. The prepared mud was dispensed in 365 mL aliquots into 16-ounce (oz.) non-perforated plastic pots with a surface area of 86.59 square centimeters (cm^2) leaving a headspace of 3 centimeters (cm) in each pot. Rice seeds were planted in Sun Gro MetroMix® 306 planting mixture, which typically has a pH of 6.0 to 6.8 and an organic matter content of about 30 percent, in plastic plug trays. Seedlings at the second or third leaf stage of growth were transplanted into 860 mL of mud contained in 32-oz. non-perforated plastic pots with a surface area of 86.59 cm^2 4 days prior to herbicide application. The paddy was created by filling the headspace of the pots with 2.5 to 3 cm of water. When required to ensure good germination and healthy plants, a fungicide treatment and/or other chemical or physical treatment was applied. The plants were grown for 4-22 days in a greenhouse with an approximate 14 h photoperiod which was maintained at about 29′C during the day and 26° C. during the night. Nutrients were added as Osmocote® (19:6:12, N:P:K+minor nutrients) at 2 g per 16-oz. pot and 4 g per 32-oz. pot. Water was added on a regular basis to maintain the paddy flood, and supplemental lighting was provided with overhead metal halide 1000-Watt lamps as necessary. The plants were employed for testing when they reached the first through fourth true leaf stage.
(§2) Treatments consisted of the acid or esters of 4-amino-3-chloro-5-fluoro-6-(4-chloro-2-fluoro-3-methoxy-phenyl)pyridine-2-carboxylic acid (compound A) each formulated as an SC and various herbicidal components alone and in combination. Forms of compound A were applied on an acid equivalent basis.
(§3) Other herbicidal components were applied on an active ingredient basis and included acetolactate synthase (ALS)-inhibiting herbicides (sulfonylurea chemical class), azimsulfuron formulated as Gulliver®, bensulfuron-methyl formulated as Londax® 60DF, cyclosulfamuron (technical grade materail), ethoxysulfuron formulated as Sunrice® 15 WDG, flucetosulfuron formulated as Sukedachi® 1KG G, imazosulfuron formulated as Brazzos®, metsulfuron-methyl formulated as Lorate®, nicosulfuron formulated as Accent®, orthosulfamuron formulated as Strada® WG, propyrisulfuron formulated as Zeta One®, and rimsulfuron formulated as Matrix® WG.
(§4) Treatment requirements for each compound or herbicidal component were calculated based upon the rates being tested, the concentration of active ingredient or acid equivalent in the formulation, an application volume of 2 mL per component per pot, and an application area of 86.59 cm^2 per pot.
(§5) For formulated compounds, a measured amount was placed in an individual 100 or 200 mL glass vial and was dissolved in a volume of 1.25% (v/v) Agri-Dex® crop oil concentrate to obtain application solutions.
(§6) For technical grade compounds, a weighed amount was placed in an individual 100 to 200 mL glass vial and was dissolved in a volume of acetone to obtain concentrated stock solutions. […] The concentrated stock solutions obtained were diluted with an equivalent volume of an aqueous mixture containing 2.5% (v/v) crop oil concentrate so that the final application solutions contained 1.25% (v/v) crop oil concentrate.
(§7) Applications were made by injecting with a pipetter appropriate amounts of the application solutions, individually and sequentially, into the aqueous layer of the paddy. Control plants were treated in the same manner with the solvent blank. Applications were made so that all treated plant material received the same concentrations of acetone and crop oil concentrate. […]

[2] = test system: ECHOR (Echinochloa oryzoides, early watergrass); assay: as above; type: in vivo, Echinochloa oryzoides (Ard.) Fritsch
Description: as §1, §2, §3, §4, §5, §6, §7

[3] = test system: ECHCG (Echinochloa crusgalli, barnyardgrass); assay: Postemergence foliar-applied weed control, direct seeded rice, greenhouse (Example I); type: in vivo, Echinochloa crusgalli (L.) Beauv.; settings: 27 DAA
Excerpt: (§8) Seeds or nutlets of the desired test plant species were planted in a soil matrix prepared by mixing a loam or sandy loam soil (e.g., 28.6 percent silt, 18.8 percent clay, and 52.6 percent sand, with a pH of about 5.8 and an organic matter content of about 1.8 percent) and calcareous grit in an 80 to 20 ratio. The soil matrix was contained in plastic pots with a volume of 1 quart and a surface area of 83.6 square centimeters (cm^2). When required to ensure good germination and healthy plants, a fungicide treatment and/or other chemical or physical treatment was applied. The plants were grown for 8-22 days in a greenhouse with an approximate 14 h photoperiod which was maintained at about 29° C. during the day and 26° C. during the night. Nutrients (Peters Excel® 15-5-15 5-Ca 2-Mg and iron chelate) were applied in the irrigation solution as needed and water was added on a regular basis. Supplemental lighting was provided with overhead metal halide 1000-Watt lamps as necessary. The plants were employed for testing when they reached the first through fourth true leaf stage.
(§9) Treatments consisted of the acid or esters of 4-amino-3-chloro-5-fluoro-6-(4-chloro-2-fluoro-3-methoxy-phenyl)pyridine-2-carboxylic acid (Compound A), each formulated as an SC, and various herbicidal components alone and in combination. Forms of compound A were applied on an acid equivalent basis.
(§10) Other herbicidal components were applied on an active ingredient basis and included acetolactate synthase (ALS)-inhibiting herbicides (sulfonylurea chemical class) azimsulfuron formulated as Gulliver®, bensulfuron-methyl formulated as Londax® 60DF, cyclosulfamuron (technical material), ethoxysulfuron formulated as Sunrice® 15 WDG, flazasulfuron formulated as Katana®, flucetosulfuron formulated as Sukedachi® 1KG G, foramsulfuron formulated as Option®, imazosulfuron formulated as Brazzos® WG, iodosulfuron-methyl-sodium formulated as Hussar®, metsulfuron-methyl formulated as Lorate®, nicosulfuron formulated as Accent®, orthosulfamuron formulated as Strada® WG, primisulfuron-methyl (technical material), propyrisulfuron formulated as Zeta One®, rimsulfuron formulated as Matrix® WG, sulfometuron-methyl formulated as Oust®, and trifloxysulfuron-sodium formulated as Monument® 75WG.
(§11) Treatment requirements were calculated based upon the rates being tested, the concentration of active ingredient or acid equivalent in the formulation, and a 12 mL application volume at a rate of 187 L/ha.
(§12) For treatments comprised of formulated compounds, measured amounts of compounds were placed individually in 25 mL glass vials and diluted in a volume of 1.25% (v/v) Agri-Dex® crop oil concentrated to obtain 12× stock solutions. […] Application solutions were prepared by adding an appropriate amount of each stock solution (e.g., 1 mL) and diluted to the appropriate final concentrations with the addition of 10 mL of an aqueous mixture of 1.25% (v/v) crop oil concentrate so that the final spray solutions contained 1.25+/−0.05% (v/v) Agrcrop oil concentrate.
(§13) For treatments comprised of formulated and technical compounds, weighed amounts of the technical materials were placed individually in 25 mL glass vials and dissolved in a volume of 97:3 v/v acetone/DMSO to obtain 12× stock solutions, and measured amounts of the formulated compounds were placed individually in 25 mL glass vials and diluted in a volume of 1.25% (v/v) crop oil concentrate to obtain 12× stock solutions. […] Application solutions were prepared by adding an appropriate amount of each stock solution (e.g., 1 mL) and diluted to the appropriate final concentrations with the addition of an appropriate amount of an aqueous mixture of 1.5% (v/v) crop oil concentrate so that the final spray solutions contained 1.25% (v/v) crop oil concentrate. […]

[4] = test system: BRAPP (Brachiaria platyphylla, broadleaf signalgrass); assay: as above; type: in vivo, Brachiaria platyphylla (Griseb.) Nash; settings: Urochloa platyphylla, post-emergence
Excerpt: as §8, §9, §10, §11, §12, §13

[5] = test system: CYPIR (Cyperus iria, rice flatsedge); assay: as above; type: in vivo, Cyperus iria L.; settings: 22 DAA
Excerpt: as §8, §9, §10, §11, §12, §13

[6] = test system: LEFCH (Leptochloa chinensis, Chinese sprangletop); assay: In-water applied weed control, transplanted paddy rice, greenhouse (Example II); type: in vivo, Leptochloa chinensis (L.) Nees
Description: as §1, §2, §3, §4, §5, §6, §7

[7] = test system: ISCRU (Ischaemum rugosum, saramollagrass); assay: Postemergence foliar-applied weed control, direct seeded rice, greenhouse (Example I); type: in vivo, Ischaemum rugosum Salisb.; settings: 21 DAA
Excerpt: as §8, §9, §10, §11, §12, §13

[8] = test system: VERPE (Veronica persica, bird's-eye speedwell); assay: Post-emergence foliar-applied weed control in cereal crops, greenhouse (Example III); type: in vivo, Veronica persica Poir.
Description: (§14) Seeds of the desired test plant species were planted in Sun Gro MetroMix® 306 planting mixture, which typically has a pH of 6.0 to 6.8 and an organic matter content of about 30 percent, in plastic pots with a surface area of 103.2 square centimeters (cm^2). When required to ensure good germination and healthy plants, a fungicide treatment and/or other chemical or physical treatment was applied. The plants were grown for 7-36 days in a greenhouse with an approximate 14 hour photoperiod which was maintained at about 18° C. during the day and 17° C. during the night. Nutrients and water were added on a regular basis and supplemental lighting was provided with overhead metal halide 1000-Watt lamps as necessary. The plants were employed for testing when they reached the second or third true leaf stage.
(§15) Treatments consisted of the benzyl ester of 4-amino-3-chloro-5-fluoro-6-(4-chloro-2-fluoro-3-methoxy-phenyl)pyridine-2-carboxylic acid (Compound A), formulated as an SC (suspension concentrate), and a second cereal herbicide alone and in combination.
(§16) Measured aliquot of benzyl ester of 4-amino-3-chloro-5-fluoro-6-(4-chloro-2-fluoro-3-methoxy-phenyl)pyridine-2-carboxylic acid (Compound A) was placed in 25 milliliter (mL) glass vials and diluted in a volume of 1.25% (v/v) Agri-dex crop oil concentrated to obtain stock solutions. Compound requirements are based upon a 12 mL application volume at a rate of 187 liters per hectare (L/ha). Spray solutions of the second cereal herbicide and experimental compound mixtures were prepared by adding the stock solutions to the appropriate amount of dilution solution to form 12 mL spray solution with active ingredients in two- and three-way combinations. Formulated compounds were applied to the plant material with an overhead Mandel track sprayer equipped with an 8002E nozzle calibrated to deliver 187 L/ha over an application area of 0.503 square meters (m^2) at a spray height of 18 inches (46 cm) above average plant canopy. Control plants were sprayed in the same manner with the solvent blank.
(§17) The treated plants and control plants were placed in a greenhouse as described above and watered by sub-irrigation to prevent wash-off of the test compounds. After 20-22 days, the condition of the test plants as compared with that of the control plants was determined visually and scored on a scale of 0 to 100 percent where 0 corresponds to no injury and 100 corresponds to complete kill.
(§18) Colby's equation was used to determine the herbicidal effects expected from the mixtures (Colby, S. R. 1967. Calculation of the synergistic and antagonistic response of herbicide combinations. Weeds 15:20-22.).
(§19) The following equation was used to calculate the expected activity of mixtures containing two active ingredients, A and B: Expected=A+B−(A×B/100)

[9] = test system: CIRAR (Cirsium arvense, Canada thistle); assay: as above; type: in vivo, Cirsium arvense (L.) Scop.; settings: foliar-applied, after 20-22 days
Description: as §14, §15, §16, §17, §18, §19

[10] = test system: MATCH (Chamomilla chamomilla, scented mayweed); assay: as above; type: in vivo, Chamomilla chamomilla (L.) Rydb.
Description: as §14, §15, §16, §17, §18, §19

[11] = Table 55, after 20-22 days, 3 gai/ha alone

CCCCOC(=O)c1nc(-c2ccc(Cl)c(OC)c2F)c(F)c(N)c1Cl [Compound A n-Butyl Ester]
Visual Weed Control (%) - 20 DAA SCPMA Obs ([1]; Table 40, 35 gae/ha alone): 0%
Visual Weed Control (%) - 20 DAA SCPMA Obs ([1]; Table 40, 70 gae/ha alone): 0%
Visual Weed Control (%) - 20 DAA ECHOR Obs ([2]; Table 30, 35 gae/ha alone): 28%
Visual Weed Control (%) - 20 DAA ECHOR Obs ([2]; Table 30, 70 gae/ha alone): 45%
Visual Weed Control (%) Obs ([3]; 4.38 gae/ha): 0%
Visual Weed Control (%) Obs ([3]; 8.75 gae/ha): 0%
pest or weed control at 4.38 g/ha ([4]; 504 h, read-out: Visual Weed Control (%) Obs, 21 DAA, 4.38 gae/ha): 0%
pest or weed control at 8.75 g/ha ([4]; 504 h, read-out: Visual Weed Control (%) Obs, 21 DAA, 8.75 gae/ha): 40%

CCOc1ccccc1OS(=O)(=O)NC(=O)Nc1nc(OC)cc(OC)n1 [Ethoxysulfuron, 2-ethoxyphenyl[[(4,6-dimethoxy-2-pyrimidinyl)amino]carbonyl]sulfamate, reference compound]
Visual Weed Control (%) - 22 DAA ECHOR Obs ([2]; Table 34, 7.5 gai/ha alone): 10%
Visual Weed Control (%) - 22 DAA ECHOR Obs ([2]; Table 35, 7.5 gai/ha alone): 10%
Visual Weed Control (%) - 22 DAA ECHOR Obs ([2]; Table 35, 15 gai/ha alone): 20%
Visual Weed Control (%) Obs ([5]; 7.5 gai/ha): 50%
Visual Weed Control (%) Obs ([5]; 15 gai/ha): 50%
Visual Weed Control (%) Obs ([5]; 30 gai/ha): 85%
Visual Weed Control (%) - 22 DAA LEFCH Obs ([6]; Table 34, 15 gai/ha alone): 0%
Visual Weed Control (%) - 22 DAA LEFCH Obs ([6]; Table 35, 7.5 gai/ha alone): 0%
Visual Weed Control (%) - 22 DAA LEFCH Obs ([6]; Table 35, 15 gai/ha alone): 0%
Visual Weed Control (%) Obs ([7]; 17.5 gai/ha): 0%
Visual Weed Control (%) Obs ([7]; 70 gai/ha): 0%
pest or weed control at 7.5 g/ha ([4]; 528 h, 22 DAA, 7.5 gai/ha, read-out: Visual Weed Control (%) Obs): 0%
pest or weed control at 15 g/ha ([4]; 528 h, 22 DAA, 15 gai/ha, read-out: Visual Weed Control (%) Obs): 0%
pest or weed control at 30 g/ha ([4]; 528 h, 22 DAA, 30 gai/ha, read-out: Visual Weed Control (%) Obs): 0%

COC(=O)c1ccc(C(F)(F)F)nc1S(=O)(=O)NC(=O)Nc1nc(OC)cc(OC)n1 [Flupyrsulfuron-methyl sodium]
Weed Control VERPE Obs ([8]; Table 53, after 20-22 days, 5 gai/ha alone): 0%
pest or weed control at 5 g/ha ([9]; Cirsium arvense, post-emergence, Table 53, 5 gai/ha alone, read-out: Weed Control CIRAR Obs): 75%

COC(=O)c1ccc(CNS(C)(=O)=O)cc1S(=O)(=O)NC(=O)Nc1nc(OC)cc(OC)n1 [Mesosulfuron-methyl]
Weed Control MATCH Obs [10, 11]: 40%
Weed Control VERPE Obs [8, 11]: 5%
Weed Control CIRAR Obs ([9]; Table 55, 3 gai/ha alone): 78%

COC(=O)c1ccccc1S(=O)(=O)NC(=O)N(C)c1nc(C)nc(OC)n1 [Tribenuron-methyl]
Weed Control MATCH Obs ([10]; Table 59 (cereal), after 20-22 days, 2.2 gai/ha alone): 90%
pest or weed control at 2.2 g/ha ([9]; Cirsium arvense, post-emergence, Table 59 (cereal), 2.2 gai/ha alone, read-out: Weed Control CIRAR Obs): 50%
